The values that follow come from the pKa sets of Baltruschat and Czodrowski (2020).

Broadly, the pKa is the negative logarithm of the acid dissociation constant.

The molecule `COc1ccc(-c2nc3ncccc3[nH]2)c(OC)c1` came in with a pKa (basic group) of 4.63. Still for that read-out and setting: next, `CCCCCCN(CC(C)O)CC(O)CC` (stereo not drawn): 8.9. `O=C(O)c1ccc[nH+]c1[O-]`: the pKa (acidic group) worked out at 5.28. As to `CCN1CC(O[Si](C)(C)C)C1`, where the note is “basic group”, the pKa is 8.68.

`N#Cc1ccc(S(=O)(=O)NCc2ccccc2)cc1`: the pKa (acidic group) came to 10.3. Same read-out and setting: as for `O=C(O)[C@@H]1CC[C@H](C(=O)O)C1`, the figure is 4.24. On to `O=C([O-])[C@@H]1O[C@H](Oc2cccc3ncccc23)[C@@H](O)[C@H](O)[C@H]1O`, for which, for the setting “basic group”, the pKa is 4.91.

In the case of `CC1(C)CC(=O)C(=NO)C(=O)C1`, the pKa (acidic group) came to 5.4. Under “acidic group”, `O=C([O-])CN(CC(=O)O)Cc1cc(Cl)cc(C[NH+](CC(=O)[O-])CC(=O)O)c1O` displayed a pKa of 2.2. Regarding `COP(=O)(O)NS(=O)(=O)c1ccccc1`, under “acidic group”, the pKa was found to be 1.05. The molecule `c1ccc2c(c1)C1CCN2CC1` yielded a pKa (basic group) of 7.79.

For `CCCCCC(=O)NO`, the pKa (acidic group) came to 9.58.

For the setting “acidic group”, `O=C(O)[C@@H]1CC[C@@H](C(=O)O)[Se]1` displayed a pKa of 3.46. Consider `Cc1ccc(/C=N/O)cc1`, for which the pKa (acidic group) came out at 10.9.

Consider `Oc1cc(-c2ccccc2)no1`, for which the pKa (acidic group) came out at 4.01. Where the note is “basic group”, `CCOc1ccc2nc(/C=C/c3ccccc3)cc(N)c2c1` showed a pKa of 9.5. On the same count and under the same terms, as for `O=Cc1cc(-c2ccccc2)nnc1NCCN1CCOCC1`, the figure is 6.89. The same measure, in the same setting: next, `Cc1cnc2c(cc(C)c3cccnc32)c1C`: 5.93. Take `Cc1nc2nc([O-])[nH]c(=O)c2[nH]1`: the pKa (acidic group) was 9.7. As for `CC1=Nc2ccccc2CO1`, the pKa (basic group) was found to be 4.64. With `C1=C(c2nc3ccccc3s2)C2CCN1CC2`, the pKa (basic group) was 7.4. For the molecule `CCOC(=O)/C(=N\O)C(C)=O`, under “acidic group”, the pKa is 7.2. The molecule `Cn1ccc(=S)c2ccccc21` displayed a pKa (basic group) of 0.56.

In turn, `CC(C#N)(CC(=O)O)c1ccccc1` (stereo not drawn) returned a pKa (acidic group) of 3.99. `Clc1cc(-c2ccccc2)nnc1NCC[NH+]1CCOCC1` gave a pKa (basic group) of 2.54.

Take `Cc1ccc(C(=O)C(=O)O)cc1`: the pKa (acidic group) worked out at 1.52. As to `N#Cc1ccc2c(c1)C([P+](c1ccccc1)(c1ccccc1)c1ccccc1)c1ccccc1-2` (stereo not drawn), the pKa (acidic group) turned out to be 5.81.

For the molecule `COC(=O)[C@@H]1CSCN1`, where the note is “basic group”, the pKa stood at 3.92. On the same count and under the same terms, as for `c1ccc(-c2ccc3ccc4cccnc4c3n2)cc1`, the figure is 4.9.

The molecule `c1ccc2scnc2c1` displayed a pKa (basic group) of 1.38. With `Nc1cccc(S(N)(=O)=O)c1`, the pKa (basic group) was 2.87.

With `CCOc1ccc2nc3c(c(N4CCOCC4)c2c1)CCC3`, under “basic group”, the pKa was determined as 7.11. On the same count and under the same terms, as for `CCCNCCC`, the figure is 11; as for `CCCCCCCCN(CC(C)O)CC(C)O` (stereo not drawn), 8.3; as for `Nc1ccc2ccnnc2c1`, 4.85. `C=CC#CCC(=O)O`: the pKa (acidic group) worked out at 3.41.

Molecule `Nc1cccc([N+](=O)[O-])c1` came in with a pKa (basic group) of 2.6. For the molecule `C[S+](C)CC(=O)c1ccc([N+](=O)[O-])cc1`, for the setting “acidic group”, the pKa was determined as 6.7. `CN(C)CCCCC(=O)Oc1ccccc1` came in with a pKa (basic group) of 10. Still for that read-out and setting: as for `O=P([O-])([O-])C(NCc1ccccn1)c1ccccc1[O-]` (stereo not drawn), the figure is 12.1. On to `COc1ccc(CN)cc1`, for which the pKa (basic group) turned out to be 9.67. Still for that read-out and setting: next, `CC(O)CN(C)CCO` (stereo not drawn): 8.69. Regarding `CC(C)(/C=C/C(=O)O)c1cc(Br)ccc1O`, the pKa (acidic group) was 4.46. With `Nc1cccnc1C(=O)[O-]`, under “basic group”, the pKa amounted to 7.18. Take `CCCCCSC(=N)c1ccccc1`: the pKa (basic group) is 8.5. For the setting “acidic group”, `C(C[NH2+]CCc1nnn[nH]1)[NH2+]CCc1nnn[nH]1` showed a pKa of 3.11. The molecule `CCCCN(C)N(C)CCCC` displayed a pKa (basic group) of 7.16. In turn, `Nc1ccc(S(=O)(=O)Nc2nccs2)c(Cl)c1` displayed a pKa (acidic group) of 6.95. As for `C(=C\c1ccncc1)/c1ccncc1`, the pKa (basic group) is 5.82.

For the setting “acidic group”, `Cc1ccc(C(=O)O)cc1C` yielded a pKa of 4.41. Still for that read-out and setting: next, `CC1=NS(=O)(=O)c2cc(Cl)ccc2N1`: 8.62. Molecule `O=P([O-])([O-])C(NCc1cccnc1)c1ccccc1[O-]` (stereo not drawn) showed a pKa (basic group) of 12.2.

Where the note is “acidic group”, `O=C(O)c1cc(=O)cco1` yielded a pKa of 1.5. In the case of `C/N=C(/SC)c1ccccc1`, for the setting “acidic group”, the pKa is 6.42.

The molecule `Cc1cncc[nH+]1` gave a pKa (basic group) of -4.89.

In turn, `Brc1cc2cccnc2c2ncccc12` came in with a pKa (basic group) of 4.2. `CC(=O)N(O)c1ccccc1`: where the note is “acidic group”, the pKa worked out at 8.36. As to `C[n+]1ccc(NN)c2ccccc21`, the pKa (basic group) was 2.61. The molecule `O=C(O)C[C@]1(O)C[C@H]2CC[C@@H]1C2` yielded a pKa (acidic group) of 4.57. Turning to `C=CC(C)Nc1ccccc1` (stereo not drawn), the pKa (basic group) was found to be 4.57. Still for that read-out and setting: as for `CN(C)CCCN(C)C`, the figure is 9.8. Regarding `O=C(O)C12CC3(F)CC(F)(CC(F)(C3)C1)C2`, the pKa (acidic group) was determined as 3.24.

`[O-]N=C1/C(=N/O)CCC/C1=N\O` showed a pKa (acidic group) of 11.1. `CCCCn1ccnc1` yielded a pKa (basic group) of 7.14.

`CC(C)(C)Nc1ccccc1` gave a pKa (basic group) of 7.15. The same measure, in the same setting: next, `NCC/C=C/C(=O)[O-]`: 9.95. `CC[NH+]1CCC[C@@H]1CNC(=O)c1c(OC)ccc(Cl)c1O` came in with a pKa (acidic group) of 7.07. Still for that read-out and setting: as for `O=C(O)CCCCC1CCSS1` (stereo not drawn), the figure is 4.82; as for `O=c1cc(-c2ccccc2)oc2c(O)cccc12`, 7.82; as for `S=c1[nH]c2cc3c(cc2[nH]1)CCCC3`, 10.4. Under “basic group”, `CCC(C)N(C)C` (stereo not drawn) returned a pKa of 10.4.

`Cn1cc([NH3+])cc1C(=O)O`: the pKa (acidic group) is 3.5.

On to `Cc1ncc[nH+]c1C`, for which, where the note is “basic group”, the pKa is -4.17. The same measure, in the same setting: next, `C[NH2+]CCN(C)CC[NH3+]`: 3.38. Molecule `O=C(Oc1ccc(Cl)cc1)C1c2ccccc2-c2ccccc21` displayed a pKa (acidic group) of 10.3.

Turning to `Cc1ccc(S(=O)(=O)NC(=O)OCc2ccccc2)cc1`, the pKa (acidic group) was found to be 4.21. Still for that read-out and setting: next, `C/C(=N\O)c1ccccc1`: 11.3. In the case of `Cn1c[nH+]c2cc(N)ccc21`, the pKa (basic group) was found to be 3.09. For `Cc1ccc(-c2ncc(-c3ccc(Br)cc3)o2)cc1`, the pKa (basic group) is 0.87. For the molecule `O=[N+]([O-])c1ccc2[nH]c(-c3ccccc3)nc2c1`, the pKa (basic group) was determined as 2.95. `CCC/C=C(/C)C(=O)O` returned a pKa (acidic group) of 4.44. Turning to `NCc1ccccc1`, the pKa (basic group) was found to be 9.36. Regarding `CC[NH+](CC)CCNc1cc(C)nc(Nc2ccc(Cl)cc2)n1`, where the note is “basic group”, the pKa was 6.65. On to `Cn1c(=S)[nH]c2cc3c(cc21)CCCC3`, for which the pKa (acidic group) came out at 10.8. `C[NH+](C)Cc1cc(-c2ccccc2)cc(C[NH+](C)C)c1O` had a pKa (acidic group) of 5.65.

As to `Cc1coc(C)c1C(=O)O`, the pKa (acidic group) amounted to 4.55.

Take `O=[N+]([O-])c1cc(-c2ccccc2)ccc1O`: the pKa (acidic group) is 6.73.

Under “acidic group”, `[NH3+]CCCCCC(=O)O` showed a pKa of 4.37. On the same count and under the same terms, as for `Cc1ccc(N[N+](=O)[O-])cc1`, the figure is 4.88. `Nc1cccc2[nH]c(Cc3ccccc3)nc12`: the pKa (basic group) worked out at 8.6. Turning to `C/N=C(/NC)N(C)C`, where the note is “basic group”, the pKa came to 13.9.

`CO[C@H]1O[C@H](C(=O)O)[C@H](O)[C@H](O)[C@H]1O`: the pKa (acidic group) was 3.55. Turning to `NC(=O)[C@H](N)[C@H](O)C(=O)O`, the pKa runs as follows: (acidic group) 2.31; (basic group) 7.17. On to `[NH3+]CCC(=O)N[C@@H](Cc1c[nH]c[nH+]1)C(=O)O`, for which the pKa (acidic group) came out at 2.7. Take `Nc1ccc(-c2ncc(-c3ccccc3)o2)cc1`: where the note is “basic group”, the pKa was 3.01.

In turn, `CN(C)c1ccc(C(O)(c2ccccc2)c2ccc(N(C)C)cc2)cc1` displayed a pKa (basic group) of 6.93. Turning to `COc1cccc(OC)c1-c1nc2ncccc2[nH]1`, the pKa runs as follows: (acidic group) 11.3; (basic group) 4.85.

Consider `c1ccc2cc(NCCNc3ccc4ccccc4c3)ccc2c1`, for which, under “basic group”, the pKa was found to be 3.7. The same measure, in the same setting: next, `CN(C)Cc1cc([N+](=O)[O-])ccc1[O-]`: 9.93. For the setting “acidic group”, `Cc1c(-c2ccccc2)nn(-c2ccccc2)c1O` displayed a pKa of 7.8. As to `NC1=[NH+][C@H]2C[C@@H](N1)[NH2+][C@@H]2C(=O)O`, the pKa (acidic group) amounted to 1.3.

As for `CN(C)Cc1cc(C(C)(C)C)ccc1O`, the pKa reads like this: (acidic group) 11.5; (basic group) 8.55. For the molecule `CC(=O)c1cc(C)c(C)cc1O`, under “acidic group”, the pKa was determined as 11.6. Molecule `[NH3+]CCCCc1ccccn1` yielded a pKa (basic group) of 5.56.

As to `CCNCC(=O)[O-]`, where the note is “basic group”, the pKa is 10.2. In turn, `C[n+]1cccc2c3ccccc3[nH]c21` displayed a pKa (acidic group) of 7.4.

For the setting “basic group”, `OCCN1CC[NH2+]CC1` gave a pKa of 5.47. Molecule `CC(O)[C@@H]1C[NH2+][C@H](C(=O)[O-])[C@H]1CC(=O)O` (stereo partly drawn) yielded a pKa (acidic group) of 4.35. Where the note is “basic group”, `c1ccc(-c2ccc[nH+]c2)nc1` registered a pKa of 1.52. `N#CC(C#N)=NNc1ccccc1Br`: the pKa reads like this: (acidic group) 6.35; (basic group) -0.8. `CN(C)c1ccc([N+](=O)[O-])c2c(NCCC[NH+](C)C)c3ccccc3nc12`: the pKa (basic group) came to 6.47.

Where the note is “acidic group”, `Cc1cccc2oc(=O)cc(O)c12` showed a pKa of 4.2.

In turn, `COc1cc(C)ncn1` showed a pKa (basic group) of 3.65.

As to `O=C(O)C#Cc1ccccc1`, where the note is “acidic group”, the pKa came to 2.26. Turning to `CN1C(=S)NC(=O)C12CCCCC2`, the pKa (acidic group) amounted to 9.25. As to `N#Cc1ccc(NS(=O)(=O)c2ccccc2)cc1`, the pKa (acidic group) came to 6.78.

The molecule `C[n+]1ccccc1C(C)(O)O` displayed a pKa (acidic group) of 10.6. For the setting “basic group”, `CCCCC[C@H](C)N` came in with a pKa of 10.8.

Under “acidic group”, `O=C(O)c1c(Cl)cccc1[N+](=O)[O-]` registered a pKa of 1.41. For `CCN(CC)CC(=O)Nc1ccccc1C`, the pKa (basic group) was 7.95. For `CC1=NS(=O)(=O)c2cnccc2N1`, under “acidic group”, the pKa stood at 7.6. Still for that read-out and setting: as for `[O-]/C(O)=C1\SCc2ccccc21`, the figure is 12.8.

`c1ccc(Oc2ccccn2)cc1` returned a pKa (basic group) of 2.35. Where the note is “basic group”, `CC1=C(CC(C)NCC(O)c2ccc(Br)cc2)CCC1(C)C` (stereo not drawn) yielded a pKa of 8.57.

`Cc1cc(=O)n2ncnc2[nH]1` came in with a pKa (acidic group) of 6.19.

As for `CCNc1nc(N)nc(NCC)n1`, the pKa (basic group) came to 5.52.

For `CC(C)(C)N1CCCC(=O)C(O)CCC1` (stereo not drawn), for the setting “basic group”, the pKa worked out at 7.6.

With `Cc1ncc(C(=O)O)s1`, the pKa (acidic group) turned out to be 3.26.

Take `NC1CC1`: the pKa (basic group) came out at 9.1.

`Nc1ccc2cncnc2c1`: the pKa (basic group) stood at 4.6.

Take `CN1CCCC2CCN=C21` (stereo not drawn): the pKa (basic group) came to 11.5.

The molecule `[O-][n+]1ccc(O)cc1` returned a pKa (acidic group) of 5.76. Take `NCCCCOc1c2ccccc2cc2ccccc12`: for the setting “basic group”, the pKa was found to be 9.94. Regarding `Cc1cccc(S(=O)(=O)O)c1`, the pKa (acidic group) is -6.56.
